Reference: the NIST ThermoML archive (doi:10.1016/j.jct.2016.12.032)
Numbers after ± are expanded uncertainties.

Experiments:
[1] = refractive index (Na D-line) (dimensionless); details: 100 kPa, Liquid, Standard Abbe refractometry
[2] = 100 kPa, Liquid; for viscosity: Capillary tube (Ostwald / Ubbelohde) method; for speed of sound: Frequency=3 MHz, Sing-around technique in a fixed-path interferometer; for mass density: Vibrating tube method
[3] = xn = mol fraction of the nth substance listed; details: 100 kPa, Liquid, x1 = 1; for viscosity: Capillary tube (Ostwald / Ubbelohde) method; for mass density: Vibrating tube method

SMILES	viscosity ([2]; 293.15 K)	speed of sound ([2]; 293.15 K)	mass density ([2]; 293.15 K)	viscosity ([2]; 298.15 K)	speed of sound ([2]; 298.15 K)	mass density ([2]; 298.15 K)	viscosity ([2]; 303.15 K)	speed of sound ([2]; 303.15 K)	mass density ([2]; 303.15 K)	viscosity ([2]; 308.15 K)	speed of sound ([2]; 308.15 K)	mass density ([2]; 308.15 K)	viscosity ([2]; 313.15 K)	speed of sound ([2]; 313.15 K)	mass density ([2]; 313.15 K)	viscosity ([2]; 318.15 K)	speed of sound ([2]; 318.15 K)	mass density ([2]; 318.15 K)	viscosity ([2]; 323.15 K)	mass density ([2]; 323.15 K)	further results
O=C1CCCCCO1 [6-hexanolactone]	6.63 ± 0.27 mPa·s	1567.8 ± 3.4 m/s	1075.92 ± 2 kg/m3	5.76 ± 0.23 mPa·s	1548.3 ± 3.3 m/s	1071.67 ± 2 kg/m3	5.04 ± 0.2 mPa·s	1529 ± 3.3 m/s	1067.41 ± 2 kg/m3	4.44 ± 0.18 mPa·s	1510 ± 3.3 m/s	1063.15 ± 2 kg/m3	3.95 ± 0.16 mPa·s	1491.2 ± 3.2 m/s	1058.9 ± 2 kg/m3	3.53 ± 0.14 mPa·s	1472.7 ± 3.2 m/s	1054.65 ± 2 kg/m3	3.17 ± 0.13 mPa·s	1050.4 ± 2 kg/m3	refractive index ([1]; 293.15 K): 1.463 ± 0.003; refractive index ([1]; 298.15 K): 1.461 ± 0.003; refractive index ([1]; 303.15 K): 1.459 ± 0.003; refractive index ([1]; 308.15 K): 1.457 ± 0.003; refractive index ([1]; 313.15 K): 1.455 ± 0.003; refractive index ([1]; 318.15 K): 1.454 ± 0.003; refractive index ([1]; 323.15 K): 1.452 ± 0.003; speed of sound ([2]; 323.15 K): 1454.5 ± 3.1 m/s
CCCC[n+]1ccn(C)c1.O=S(=O)([N-]S(=O)(=O)C(F)(F)F)C(F)(F)F + O=C1CCCCO1																					viscosity ([3]; 293.15 K): 62.08 ± 2.5 mPa·s; mass density ([3]; 293.15 K): 1441.61 ± 2 kg/m3; viscosity ([3]; 298.15 K): 50.05 ± 2 mPa·s; mass density ([3]; 298.15 K): 1436.67 ± 2 kg/m3; viscosity ([3]; 303.15 K): 41.24 ± 1.7 mPa·s; mass density ([3]; 303.15 K): 1431.58 ± 2 kg/m3; viscosity ([3]; 308.15 K): 33.65 ± 1.4 mPa·s; mass density ([3]; 308.15 K): 1426.62 ± 2 kg/m3; viscosity ([3]; 313.15 K): 28.28 ± 1.1 mPa·s; mass density ([3]; 313.15 K): 1421.58 ± 2 kg/m3; viscosity ([3]; 318.15 K): 23.91 ± 0.97 mPa·s; mass density ([3]; 318.15 K): 1416.58 ± 2 kg/m3; viscosity ([3]; 323.15 K): 20.64 ± 0.84 mPa·s; mass density ([3]; 323.15 K): 1411.54 ± 2 kg/m3
CC1CCC(=O)O1 (stereo not drawn) [γ-valerolactone]	1.99 ± 0.08 mPa·s	1447.3 ± 3.1 m/s	1053.99 ± 2 kg/m3	1.82 ± 0.07 mPa·s	1429.2 ± 3.1 m/s	1049.28 ± 2 kg/m3	1.67 ± 0.07 mPa·s	1411.3 ± 3.1 m/s	1044.58 ± 2 kg/m3	1.53 ± 0.06 mPa·s	1393.5 ± 3 m/s	1039.87 ± 2 kg/m3	1.42 ± 0.06 mPa·s	1375.9 ± 3 m/s	1035.16 ± 2 kg/m3	1.32 ± 0.05 mPa·s	1358.4 ± 3 m/s	1030.45 ± 2 kg/m3	1.23 ± 0.05 mPa·s	1025.74 ± 2 kg/m3	refractive index ([1]; 293.15 K): 1.434 ± 0.003; refractive index ([1]; 298.15 K): 1.432 ± 0.003; refractive index ([1]; 303.15 K): 1.43 ± 0.003; refractive index ([1]; 308.15 K): 1.427 ± 0.003; refractive index ([1]; 313.15 K): 1.425 ± 0.003; refractive index ([1]; 318.15 K): 1.423 ± 0.003; refractive index ([1]; 323.15 K): 1.421 ± 0.003; speed of sound ([2]; 323.15 K): 1341.2 ± 2.9 m/s
CCCC[n+]1ccn(C)c1.O=S(=O)([N-]S(=O)(=O)C(F)(F)F)C(F)(F)F			1441.61 ± 2 kg/m3			1436.67 ± 2 kg/m3			1431.58 ± 2 kg/m3			1426.62 ± 2 kg/m3			1421.58 ± 2 kg/m3			1416.58 ± 2 kg/m3		1411.54 ± 2 kg/m3	
CCCC[n+]1ccn(C)c1.O=S(=O)([N-]S(=O)(=O)C(F)(F)F)C(F)(F)F + CC1CC(=O)O1																					viscosity ([3]; 293.15 K): 62.08 ± 2.5 mPa·s; mass density ([3]; 293.15 K): 1441.61 ± 2 kg/m3; viscosity ([3]; 298.15 K): 50.05 ± 2 mPa·s; mass density ([3]; 298.15 K): 1436.67 ± 2 kg/m3; viscosity ([3]; 303.15 K): 41.24 ± 1.7 mPa·s; mass density ([3]; 303.15 K): 1431.58 ± 2 kg/m3; viscosity ([3]; 308.15 K): 33.65 ± 1.4 mPa·s; mass density ([3]; 308.15 K): 1426.62 ± 2 kg/m3; viscosity ([3]; 313.15 K): 28.28 ± 1.1 mPa·s; mass density ([3]; 313.15 K): 1421.58 ± 2 kg/m3; viscosity ([3]; 318.15 K): 23.91 ± 0.97 mPa·s; mass density ([3]; 318.15 K): 1416.58 ± 2 kg/m3; viscosity ([3]; 323.15 K): 20.64 ± 0.84 mPa·s; mass density ([3]; 323.15 K): 1411.54 ± 2 kg/m3
O=C1CCCCO1 [1-oxacyclohexan-2-one]	3.68 ± 0.15 mPa·s	1587.2 ± 3.4 m/s	1108.53 ± 2 kg/m3	3.3 ± 0.13 mPa·s	1569.2 ± 3.4 m/s	1103.96 ± 2 kg/m3	2.98 ± 0.12 mPa·s	1551.3 ± 3.3 m/s	1099.44 ± 2 kg/m3	2.7 ± 0.11 mPa·s	1533.5 ± 3.3 m/s	1094.83 ± 2 kg/m3	2.47 ± 0.1 mPa·s	1516 ± 3.3 m/s	1090.27 ± 2 kg/m3	2.25 ± 0.09 mPa·s	1498.6 ± 3.2 m/s	1085.71 ± 2 kg/m3	2.09 ± 0.09 mPa·s	1081.16 ± 2 kg/m3	speed of sound ([2]; 323.15 K): 1481.5 ± 3.2 m/s
CCCC[n+]1ccn(C)c1.O=S(=O)([N-]S(=O)(=O)C(F)(F)F)C(F)(F)F + O=C1CCCCCO1																					viscosity ([3]; 293.15 K): 62.08 ± 2.5 mPa·s; mass density ([3]; 293.15 K): 1441.61 ± 2 kg/m3; viscosity ([3]; 298.15 K): 50.05 ± 2 mPa·s; mass density ([3]; 298.15 K): 1436.67 ± 2 kg/m3; viscosity ([3]; 303.15 K): 41.24 ± 1.7 mPa·s; mass density ([3]; 303.15 K): 1431.58 ± 2 kg/m3; viscosity ([3]; 308.15 K): 33.65 ± 1.4 mPa·s; mass density ([3]; 308.15 K): 1426.62 ± 2 kg/m3; viscosity ([3]; 313.15 K): 28.28 ± 1.1 mPa·s; mass density ([3]; 313.15 K): 1421.58 ± 2 kg/m3; viscosity ([3]; 318.15 K): 23.91 ± 0.97 mPa·s; mass density ([3]; 318.15 K): 1416.58 ± 2 kg/m3; viscosity ([3]; 323.15 K): 20.64 ± 0.84 mPa·s; mass density ([3]; 323.15 K): 1411.54 ± 2 kg/m3
CCCC[n+]1ccn(C)c1.O=S(=O)([N-]S(=O)(=O)C(F)(F)F)C(F)(F)F + CC1CCC(=O)O1																					viscosity ([3]; 293.15 K): 62.08 ± 2.5 mPa·s; mass density ([3]; 293.15 K): 1441.61 ± 2 kg/m3; viscosity ([3]; 298.15 K): 50.05 ± 2 mPa·s; mass density ([3]; 298.15 K): 1436.67 ± 2 kg/m3; viscosity ([3]; 303.15 K): 41.24 ± 1.7 mPa·s; mass density ([3]; 303.15 K): 1431.58 ± 2 kg/m3; viscosity ([3]; 308.15 K): 33.65 ± 1.4 mPa·s; mass density ([3]; 308.15 K): 1426.62 ± 2 kg/m3; viscosity ([3]; 313.15 K): 28.28 ± 1.1 mPa·s; mass density ([3]; 313.15 K): 1421.58 ± 2 kg/m3; viscosity ([3]; 318.15 K): 23.91 ± 0.97 mPa·s; mass density ([3]; 318.15 K): 1416.58 ± 2 kg/m3; viscosity ([3]; 323.15 K): 20.64 ± 0.84 mPa·s; mass density ([3]; 323.15 K): 1411.54 ± 2 kg/m3
CC1CC(=O)O1 (stereo not drawn) [4-methyl-2-oxetanone]	1.68 ± 0.07 mPa·s	1371 ± 3 m/s	1055.93 ± 2 kg/m3	1.55 ± 0.06 mPa·s	1352.8 ± 3 m/s	1050.68 ± 2 kg/m3	1.48 ± 0.06 mPa·s	1334.7 ± 2.9 m/s	1045.31 ± 2 kg/m3	1.4 ± 0.06 mPa·s	1316.7 ± 2.9 m/s	1039.85 ± 2 kg/m3	1.33 ± 0.05 mPa·s	1298.8 ± 2.9 m/s	1034.33 ± 2 kg/m3	1.25 ± 0.05 mPa·s	1281.1 ± 2.8 m/s	1028.79 ± 2 kg/m3	1.18 ± 0.05 mPa·s	1023.19 ± 2 kg/m3	refractive index ([1]; 293.15 K): 1.414 ± 0.003; refractive index ([1]; 298.15 K): 1.412 ± 0.003; refractive index ([1]; 303.15 K): 1.41 ± 0.003; refractive index ([1]; 308.15 K): 1.407 ± 0.003; refractive index ([1]; 313.15 K): 1.405 ± 0.003; refractive index ([1]; 318.15 K): 1.403 ± 0.003; refractive index ([1]; 323.15 K): 1.401 ± 0.003; speed of sound ([2]; 323.15 K): 1263.6 ± 2.8 m/s
